Key:
lipoamide = compound: NC(=O)CCCCC1CCSS1 [lipoamide]; assay: thermal stability z-score vs DMSO; higher = more thermally stabilized by treatment; conditions: HeLa, lipoamide concentration 100 µM
Description: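 Cellular thermal proteome profiling in HeLa cells. Cells were treated with 100 µM lipoamide for 1 h, with or without 1 mM arsenate for a further 1 h, then heated to ten temperatures (37-66.3 °C), and soluble protein was quantified by TMT mass spectrometry relative to 0.1% DMSO controls. The thermal stability score (sum of log2 fold changes minus the abundance score) was transformed to a z-score; mean of n = 3 experiments.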

potassium arsenate = compound: O=[As]([O-])(O)O.[K+] [potassium arsenate]; assay: as above; conditions: HeLa; arsenate concentration 1 mM
Description: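 Cellular thermal proteome profiling in HeLa cells treated with 1 mM arsenate for 1 h (DMSO pretreatment), heated to ten temperatures (37-66.3 °C). Soluble protein was quantified by TMT mass spectrometry relative to DMSO controls; the thermal stability score was transformed to a z-score; mean of n = 3 experiments.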

[1] = arsenate co-treatment: 1 mM arsenate 1 h
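Note: each temperature applied for 3 min, abundance score taken as mean log2 fold change at the two lowest temperatures, z-score obtained by mean subtraction and division by SD.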

Target: TIMM17A (UniProt Q99595)
- thermal stability z-score (lipoamide; [1]): 0.133
- thermal stability z-score (lipoamide; arsenate co-treatment: none): -0.417
- thermal stability z-score (potassium arsenate): 0.164

Target: TIMM17B (UniProt O60830)
- thermal stability z-score (lipoamide; [1]): 0.0946
- thermal stability z-score (lipoamide; arsenate co-treatment: none): -0.362
- thermal stability z-score (potassium arsenate): 0.173

Target: TIMM21 (UniProt Q9BVV7)
- thermal stability z-score (lipoamide; [1]): 0.0115
- thermal stability z-score (lipoamide; arsenate co-treatment: none): 0.000788
- thermal stability z-score (potassium arsenate): 0.255

Target: TIMM23 (UniProt O14925)
- thermal stability z-score (lipoamide; [1]): 0.248
- thermal stability z-score (lipoamide; arsenate co-treatment: none): -0.124
- thermal stability z-score (potassium arsenate): 0.0795

Target: TIMM44 (UniProt O43615)
- thermal stability z-score (lipoamide; [1]): 0.147
- thermal stability z-score (lipoamide; arsenate co-treatment: none): 0.291
- thermal stability z-score (potassium arsenate): -0.65

Target: TIMM50 (UniProt Q3ZCQ8)
- thermal stability z-score (lipoamide; [1]): -0.412
- thermal stability z-score (lipoamide; arsenate co-treatment: none): -0.179
- thermal stability z-score (potassium arsenate): -0.391

Target: TIMMDC1 (UniProt Q9NPL8)
- thermal stability z-score (lipoamide; [1]): 0.185
- thermal stability z-score (lipoamide; arsenate co-treatment: none): -0.271
- thermal stability z-score (potassium arsenate): 0.538

Target: TIMP1 (UniProt P01033)
- thermal stability z-score (lipoamide; [1]): -0.407
- thermal stability z-score (lipoamide; arsenate co-treatment: none): -1.02
- thermal stability z-score (potassium arsenate): -0.272

Target: TIMP2 (UniProt P16035)
- thermal stability z-score (lipoamide; [1]): -0.833
- thermal stability z-score (lipoamide; arsenate co-treatment: none): -0.411
- thermal stability z-score (potassium arsenate): 0.923

Target: TIPIN (UniProt Q9BVW5)
- thermal stability z-score (lipoamide; [1]): -0.58
- thermal stability z-score (lipoamide; arsenate co-treatment: none): 0.146
- thermal stability z-score (potassium arsenate): 0.349

Target: TIPRL (UniProt O75663)
- thermal stability z-score (lipoamide; [1]): -0.215
- thermal stability z-score (lipoamide; arsenate co-treatment: none): -0.0559
- thermal stability z-score (potassium arsenate): 0.122

Target: TJAP1 (UniProt Q5JTD0)
Sequence of UniProt Q5JTD0 (Q5JTD0 whole entry): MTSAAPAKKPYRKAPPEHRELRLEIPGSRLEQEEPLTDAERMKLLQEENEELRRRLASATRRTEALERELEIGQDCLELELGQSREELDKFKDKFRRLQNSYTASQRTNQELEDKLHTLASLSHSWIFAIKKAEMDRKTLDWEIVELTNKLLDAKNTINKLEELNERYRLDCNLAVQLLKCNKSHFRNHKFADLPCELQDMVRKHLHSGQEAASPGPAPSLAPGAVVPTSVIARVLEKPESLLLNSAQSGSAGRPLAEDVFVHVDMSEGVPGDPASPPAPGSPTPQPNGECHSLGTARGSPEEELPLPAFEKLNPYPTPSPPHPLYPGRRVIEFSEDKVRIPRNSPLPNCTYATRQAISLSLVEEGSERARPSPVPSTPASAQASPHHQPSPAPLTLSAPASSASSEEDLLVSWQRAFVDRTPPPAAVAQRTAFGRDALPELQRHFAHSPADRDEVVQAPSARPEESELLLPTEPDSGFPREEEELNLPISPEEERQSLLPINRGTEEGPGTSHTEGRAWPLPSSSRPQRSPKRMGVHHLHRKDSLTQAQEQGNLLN
- thermal stability z-score (lipoamide; [1]): -1.54
- thermal stability z-score (lipoamide; arsenate co-treatment: none): -0.576
- thermal stability z-score (potassium arsenate): -0.0307

Target: TJP1 (UniProt Q07157)
- thermal stability z-score (lipoamide; [1]): 0.078
- thermal stability z-score (lipoamide; arsenate co-treatment: none): -0.0866
- thermal stability z-score (potassium arsenate): 0.371

Target: TJP2 (UniProt Q9UDY2)
- thermal stability z-score (lipoamide; [1]): -0.259
- thermal stability z-score (lipoamide; arsenate co-treatment: none): -0.231
- thermal stability z-score (potassium arsenate): 0.438

Target: TK1 (UniProt P04183)
Sequence of UniProt P04183 (P04183 whole entry): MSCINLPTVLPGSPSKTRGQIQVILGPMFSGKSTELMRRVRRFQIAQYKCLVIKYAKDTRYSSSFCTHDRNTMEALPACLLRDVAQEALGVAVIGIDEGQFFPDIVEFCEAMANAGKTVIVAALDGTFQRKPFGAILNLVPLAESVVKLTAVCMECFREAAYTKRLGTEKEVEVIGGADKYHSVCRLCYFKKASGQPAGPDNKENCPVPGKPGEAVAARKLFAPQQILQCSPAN
- thermal stability z-score (lipoamide; [1]): 0.233
- thermal stability z-score (lipoamide; arsenate co-treatment: none): 0.418
- thermal stability z-score (potassium arsenate): -0.307

Target: TK2 (UniProt O00142)
- thermal stability z-score (lipoamide; [1]): 0.341
- thermal stability z-score (lipoamide; arsenate co-treatment: none): 0.589
- thermal stability z-score (potassium arsenate): -0.137

Target: TKFC (UniProt Q3LXA3)
Sequence of UniProt Q3LXA3 (Q3LXA3 whole entry): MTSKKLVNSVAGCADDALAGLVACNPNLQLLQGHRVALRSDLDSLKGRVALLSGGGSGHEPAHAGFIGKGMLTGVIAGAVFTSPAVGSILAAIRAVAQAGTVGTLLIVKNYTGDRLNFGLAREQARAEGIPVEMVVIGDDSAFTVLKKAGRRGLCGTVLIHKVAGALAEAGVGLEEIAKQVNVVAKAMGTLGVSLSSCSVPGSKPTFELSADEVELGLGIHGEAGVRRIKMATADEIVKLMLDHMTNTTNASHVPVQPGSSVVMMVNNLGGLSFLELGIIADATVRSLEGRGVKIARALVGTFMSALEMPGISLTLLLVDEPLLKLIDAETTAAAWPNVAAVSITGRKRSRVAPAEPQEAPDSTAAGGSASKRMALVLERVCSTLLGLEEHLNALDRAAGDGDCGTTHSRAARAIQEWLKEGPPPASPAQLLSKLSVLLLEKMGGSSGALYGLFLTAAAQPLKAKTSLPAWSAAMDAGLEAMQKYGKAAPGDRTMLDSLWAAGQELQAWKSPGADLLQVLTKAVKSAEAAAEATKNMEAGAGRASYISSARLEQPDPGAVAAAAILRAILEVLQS
- thermal stability z-score (lipoamide; [1]): 0.239
- thermal stability z-score (lipoamide; arsenate co-treatment: none): 0.23
- thermal stability z-score (potassium arsenate): -0.753

Target: TKT (UniProt P29401)
Sequence of UniProt P29401 (P29401 whole entry): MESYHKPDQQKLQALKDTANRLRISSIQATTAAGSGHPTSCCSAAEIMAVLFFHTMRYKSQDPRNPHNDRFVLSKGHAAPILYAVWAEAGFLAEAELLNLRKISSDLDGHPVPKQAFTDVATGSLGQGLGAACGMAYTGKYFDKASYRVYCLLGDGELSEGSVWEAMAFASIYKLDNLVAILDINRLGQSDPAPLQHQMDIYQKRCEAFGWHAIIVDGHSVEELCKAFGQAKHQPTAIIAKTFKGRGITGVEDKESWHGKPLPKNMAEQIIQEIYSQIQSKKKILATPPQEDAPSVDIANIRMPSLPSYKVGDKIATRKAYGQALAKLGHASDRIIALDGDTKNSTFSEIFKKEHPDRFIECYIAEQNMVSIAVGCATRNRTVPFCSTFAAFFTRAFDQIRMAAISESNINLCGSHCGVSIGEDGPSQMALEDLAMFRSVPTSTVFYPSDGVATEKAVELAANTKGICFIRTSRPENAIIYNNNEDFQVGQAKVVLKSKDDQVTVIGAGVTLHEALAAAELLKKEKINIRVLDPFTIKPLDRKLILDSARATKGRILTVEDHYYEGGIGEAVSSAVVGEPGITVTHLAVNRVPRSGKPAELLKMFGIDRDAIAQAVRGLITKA
- thermal stability z-score (lipoamide; [1]): 0.488
- thermal stability z-score (lipoamide; arsenate co-treatment: none): 0.386
- thermal stability z-score (potassium arsenate): -0.045

Target: TLCD1 (UniProt Q96CP7)
Sequence of UniProt Q96CP7 (Q96CP7 whole entry): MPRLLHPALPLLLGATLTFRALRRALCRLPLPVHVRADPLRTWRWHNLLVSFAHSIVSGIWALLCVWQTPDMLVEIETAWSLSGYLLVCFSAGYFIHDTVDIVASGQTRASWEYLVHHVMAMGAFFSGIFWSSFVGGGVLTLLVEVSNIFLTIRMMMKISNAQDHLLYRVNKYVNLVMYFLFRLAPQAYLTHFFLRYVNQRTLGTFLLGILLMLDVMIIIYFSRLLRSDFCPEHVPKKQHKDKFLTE
- thermal stability z-score (lipoamide; [1]): -0.0961
- thermal stability z-score (lipoamide; arsenate co-treatment: none): -0.035
- thermal stability z-score (potassium arsenate): 0.587

Target: TLDC1 (UniProt Q6P9B6)
- thermal stability z-score (lipoamide; [1]): -0.455
- thermal stability z-score (lipoamide; arsenate co-treatment: none): -0.204
- thermal stability z-score (potassium arsenate): -0.238

Target: TLE2 (UniProt Q04725)
- thermal stability z-score (lipoamide; [1]): -0.165
- thermal stability z-score (lipoamide; arsenate co-treatment: none): 0.842
- thermal stability z-score (potassium arsenate): 0.141

Target: TLE3 (UniProt Q04726)
- thermal stability z-score (lipoamide; [1]): 0.171
- thermal stability z-score (lipoamide; arsenate co-treatment: none): 0.329
- thermal stability z-score (potassium arsenate): -0.674

Target: TLE4 (UniProt Q04727)
- thermal stability z-score (lipoamide; [1]): -0.201
- thermal stability z-score (lipoamide; arsenate co-treatment: none): 0.36
- thermal stability z-score (potassium arsenate): 0.289

Target: TLK1 (UniProt Q9UKI8)
- thermal stability z-score (lipoamide; [1]): 0.193
- thermal stability z-score (lipoamide; arsenate co-treatment: none): -0.983
- thermal stability z-score (potassium arsenate): 0.956

Target: TLK2 (UniProt Q86UE8)
Sequence of UniProt Q86UE8 (Q86UE8 whole entry, looked up): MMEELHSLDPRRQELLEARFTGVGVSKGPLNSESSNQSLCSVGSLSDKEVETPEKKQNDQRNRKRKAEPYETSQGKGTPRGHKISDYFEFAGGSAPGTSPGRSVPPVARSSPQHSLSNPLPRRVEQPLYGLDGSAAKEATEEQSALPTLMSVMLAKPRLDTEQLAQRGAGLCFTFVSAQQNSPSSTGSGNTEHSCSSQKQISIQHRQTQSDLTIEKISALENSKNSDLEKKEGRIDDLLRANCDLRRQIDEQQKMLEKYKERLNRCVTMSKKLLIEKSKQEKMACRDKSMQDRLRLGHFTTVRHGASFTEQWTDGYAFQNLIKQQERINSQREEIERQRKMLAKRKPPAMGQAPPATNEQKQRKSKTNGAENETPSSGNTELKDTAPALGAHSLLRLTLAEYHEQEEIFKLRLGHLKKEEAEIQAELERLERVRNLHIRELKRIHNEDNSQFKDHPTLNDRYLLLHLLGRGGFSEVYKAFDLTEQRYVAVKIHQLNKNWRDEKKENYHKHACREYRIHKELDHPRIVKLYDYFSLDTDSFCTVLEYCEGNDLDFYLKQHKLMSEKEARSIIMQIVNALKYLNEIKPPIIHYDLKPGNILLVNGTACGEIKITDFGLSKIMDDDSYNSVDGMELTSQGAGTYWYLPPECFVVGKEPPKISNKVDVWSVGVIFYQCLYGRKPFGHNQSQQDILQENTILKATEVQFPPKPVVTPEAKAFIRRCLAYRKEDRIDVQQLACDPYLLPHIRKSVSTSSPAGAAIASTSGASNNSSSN
- thermal stability z-score (lipoamide; [1]): -0.838
- thermal stability z-score (lipoamide; arsenate co-treatment: none): 0.0336
- thermal stability z-score (potassium arsenate): 0.502

Target: TLN1 (UniProt Q9Y490)
- thermal stability z-score (lipoamide; [1]): 0.266
- thermal stability z-score (lipoamide; arsenate co-treatment: none): 0.266
- thermal stability z-score (potassium arsenate): -0.682

Target: TLN2 (UniProt Q9Y4G6)
- thermal stability z-score (lipoamide; [1]): -1.57
- thermal stability z-score (lipoamide; arsenate co-treatment: none): -0.868
- thermal stability z-score (potassium arsenate): -0.69

Target: TM7SF3 (UniProt Q9NS93)
- thermal stability z-score (lipoamide; [1]): -0.0176
- thermal stability z-score (lipoamide; arsenate co-treatment: none): -0.523
- thermal stability z-score (potassium arsenate): 0.533

Target: TM9SF2 (UniProt Q99805)
Sequence of UniProt Q99805 (Q99805 whole entry): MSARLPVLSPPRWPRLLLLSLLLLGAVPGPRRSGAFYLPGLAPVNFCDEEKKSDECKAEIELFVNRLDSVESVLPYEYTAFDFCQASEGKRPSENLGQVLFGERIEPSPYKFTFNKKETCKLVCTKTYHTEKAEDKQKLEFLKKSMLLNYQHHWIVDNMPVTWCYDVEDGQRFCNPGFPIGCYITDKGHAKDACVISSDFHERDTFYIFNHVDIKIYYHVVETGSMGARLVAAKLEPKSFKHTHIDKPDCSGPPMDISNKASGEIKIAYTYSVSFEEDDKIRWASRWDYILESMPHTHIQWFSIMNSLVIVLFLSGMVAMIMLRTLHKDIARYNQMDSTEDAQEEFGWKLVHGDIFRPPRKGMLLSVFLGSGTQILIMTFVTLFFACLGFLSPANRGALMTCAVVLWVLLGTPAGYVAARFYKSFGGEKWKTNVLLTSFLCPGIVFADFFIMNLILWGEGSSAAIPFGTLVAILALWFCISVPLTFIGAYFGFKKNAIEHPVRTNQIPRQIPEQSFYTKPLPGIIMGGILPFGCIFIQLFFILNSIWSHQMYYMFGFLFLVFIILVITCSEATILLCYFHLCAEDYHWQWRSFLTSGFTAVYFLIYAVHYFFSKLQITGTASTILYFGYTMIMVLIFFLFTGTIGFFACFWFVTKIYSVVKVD
- thermal stability z-score (lipoamide; [1]): -0.509
- thermal stability z-score (lipoamide; arsenate co-treatment: none): -0.486
- thermal stability z-score (potassium arsenate): 1.03

Target: TM9SF3 (UniProt Q9HD45)
- thermal stability z-score (lipoamide; [1]): -0.451
- thermal stability z-score (lipoamide; arsenate co-treatment: none): -0.0174
- thermal stability z-score (potassium arsenate): 0.511

Target: TM9SF4 (UniProt Q92544)
- thermal stability z-score (lipoamide; [1]): -0.593
- thermal stability z-score (lipoamide; arsenate co-treatment: none): -0.263
- thermal stability z-score (potassium arsenate): 0.734

Target: TMA7 (UniProt Q9Y2S6)
- thermal stability z-score (lipoamide; [1]): 0.356
- thermal stability z-score (lipoamide; arsenate co-treatment: none): 0.314
- thermal stability z-score (potassium arsenate): 0.111

Target: TMA16 (UniProt Q96EY4)
- thermal stability z-score (lipoamide; [1]): -0.345
- thermal stability z-score (lipoamide; arsenate co-treatment: none): -0.0887
- thermal stability z-score (potassium arsenate): -0.0752

Target: TMCO1 (UniProt Q9UM00)
Sequence of UniProt Q9UM00 (Q9UM00 whole entry): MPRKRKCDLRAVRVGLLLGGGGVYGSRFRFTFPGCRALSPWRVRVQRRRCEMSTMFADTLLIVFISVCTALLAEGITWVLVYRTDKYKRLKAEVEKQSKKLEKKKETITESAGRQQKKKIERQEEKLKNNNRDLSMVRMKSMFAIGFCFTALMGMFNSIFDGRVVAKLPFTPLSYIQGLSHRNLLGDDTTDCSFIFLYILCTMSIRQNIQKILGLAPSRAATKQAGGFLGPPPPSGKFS
- thermal stability z-score (lipoamide; [1]): 0.0581
- thermal stability z-score (lipoamide; arsenate co-treatment: none): 0.305
- thermal stability z-score (potassium arsenate): -0.687

Target: TMCO3 (UniProt Q6UWJ1)
- thermal stability z-score (lipoamide; [1]): -0.807
- thermal stability z-score (lipoamide; arsenate co-treatment: none): -1.31
- thermal stability z-score (potassium arsenate): 0.2

Target: TMCO4 (UniProt Q5TGY1)
- thermal stability z-score (lipoamide; [1]): -0.342
- thermal stability z-score (lipoamide; arsenate co-treatment: none): -0.363
- thermal stability z-score (potassium arsenate): -0.0739

Target: TMED1 (UniProt Q13445)
- thermal stability z-score (lipoamide; [1]): 0.206
- thermal stability z-score (lipoamide; arsenate co-treatment: none): 0.729
- thermal stability z-score (potassium arsenate): 0.967

Target: TMED2 (UniProt Q15363)
- thermal stability z-score (lipoamide; [1]): -0.867
- thermal stability z-score (lipoamide; arsenate co-treatment: none): -1.06
- thermal stability z-score (potassium arsenate): 0.624

Target: TMED3 (UniProt Q9Y3Q3)
- thermal stability z-score (lipoamide; [1]): -0.694
- thermal stability z-score (lipoamide; arsenate co-treatment: none): -0.398
- thermal stability z-score (potassium arsenate): 0.316

Target: TMED4 (UniProt Q7Z7H5)
- thermal stability z-score (lipoamide; [1]): -0.192
- thermal stability z-score (lipoamide; arsenate co-treatment: none): -0.249
- thermal stability z-score (potassium arsenate): 0.0343

Target: TMED5 (UniProt Q9Y3A6)
- thermal stability z-score (lipoamide; [1]): -1.78
- thermal stability z-score (lipoamide; arsenate co-treatment: none): -1.51
- thermal stability z-score (potassium arsenate): 0.321

Target: TMED7 (UniProt Q9Y3B3)
Sequence of UniProt Q9Y3B3 (Q9Y3B3 whole entry): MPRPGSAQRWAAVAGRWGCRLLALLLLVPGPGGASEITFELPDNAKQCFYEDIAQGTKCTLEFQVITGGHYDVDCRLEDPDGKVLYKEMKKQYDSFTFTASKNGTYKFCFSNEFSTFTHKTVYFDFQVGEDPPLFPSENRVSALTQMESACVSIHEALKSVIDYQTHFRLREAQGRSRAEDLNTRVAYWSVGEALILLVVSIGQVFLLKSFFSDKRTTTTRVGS
- thermal stability z-score (lipoamide; [1]): -0.983
- thermal stability z-score (lipoamide; arsenate co-treatment: none): -0.909
- thermal stability z-score (potassium arsenate): 0.0944

Target: TMED9 (UniProt Q9BVK6)
- thermal stability z-score (lipoamide; [1]): -1.24
- thermal stability z-score (lipoamide; arsenate co-treatment: none): -1.5
- thermal stability z-score (potassium arsenate): 0.151

Target: TMED10 (UniProt P49755)
Sequence of UniProt P49755 (P49755 whole entry): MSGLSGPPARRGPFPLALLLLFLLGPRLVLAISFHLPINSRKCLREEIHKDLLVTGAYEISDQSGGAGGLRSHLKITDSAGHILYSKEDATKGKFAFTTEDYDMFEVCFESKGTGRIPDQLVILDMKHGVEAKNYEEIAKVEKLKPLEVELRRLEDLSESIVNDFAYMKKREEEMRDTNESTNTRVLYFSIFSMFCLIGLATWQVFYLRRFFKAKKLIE
- thermal stability z-score (lipoamide; [1]): -1.53
- thermal stability z-score (lipoamide; arsenate co-treatment: none): -1.03
- thermal stability z-score (potassium arsenate): 0.275

Target: TMEM2 (UniProt Q9UHN6)
- thermal stability z-score (lipoamide; [1]): -0.117
- thermal stability z-score (lipoamide; arsenate co-treatment: none): -0.196
- thermal stability z-score (potassium arsenate): 0.466

Target: TMEM9 (UniProt Q9P0T7)
Sequence of UniProt Q9P0T7 (Q9P0T7 whole entry): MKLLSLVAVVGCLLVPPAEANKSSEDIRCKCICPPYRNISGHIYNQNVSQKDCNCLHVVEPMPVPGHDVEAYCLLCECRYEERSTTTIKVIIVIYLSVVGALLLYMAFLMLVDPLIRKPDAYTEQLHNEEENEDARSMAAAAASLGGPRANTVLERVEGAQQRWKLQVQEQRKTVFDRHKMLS
- thermal stability z-score (lipoamide; [1]): -2.36
- thermal stability z-score (lipoamide; arsenate co-treatment: none): -2
- thermal stability z-score (potassium arsenate): -0.267

Target: TMEM9B (UniProt Q9NQ34)
- thermal stability z-score (lipoamide; [1]): 0.157
- thermal stability z-score (lipoamide; arsenate co-treatment: none): 0.52
- thermal stability z-score (potassium arsenate): 0.838

Target: TMEM11 (UniProt P17152)
- thermal stability z-score (lipoamide; [1]): -0.251
- thermal stability z-score (lipoamide; arsenate co-treatment: none): -0.145
- thermal stability z-score (potassium arsenate): -1.1

Target: TMEM23|SGMS1
- thermal stability z-score (lipoamide; [1]): 0.177
- thermal stability z-score (lipoamide; arsenate co-treatment: none): -0.142
- thermal stability z-score (potassium arsenate): -0.151

Target: TMEM30A (UniProt Q9NV96)
Sequence of UniProt Q9NV96 (Q9NV96 whole entry): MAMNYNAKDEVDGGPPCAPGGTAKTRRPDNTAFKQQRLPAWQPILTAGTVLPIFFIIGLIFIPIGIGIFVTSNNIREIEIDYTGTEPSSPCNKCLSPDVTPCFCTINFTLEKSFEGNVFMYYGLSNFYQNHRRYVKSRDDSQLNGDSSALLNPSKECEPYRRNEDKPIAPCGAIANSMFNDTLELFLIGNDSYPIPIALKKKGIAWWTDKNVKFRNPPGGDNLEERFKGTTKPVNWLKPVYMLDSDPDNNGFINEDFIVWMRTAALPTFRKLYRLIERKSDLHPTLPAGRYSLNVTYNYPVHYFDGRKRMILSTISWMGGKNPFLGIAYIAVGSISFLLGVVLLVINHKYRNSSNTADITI
- thermal stability z-score (lipoamide; [1]): -0.45
- thermal stability z-score (lipoamide; arsenate co-treatment: none): -0.161
- thermal stability z-score (potassium arsenate): -0.845

Target: TMEM33 (UniProt P57088)
- thermal stability z-score (lipoamide; [1]): -0.0206
- thermal stability z-score (lipoamide; arsenate co-treatment: none): -1.12
- thermal stability z-score (potassium arsenate): 0.972

Target: TMEM38B (UniProt Q9NVV0)
- thermal stability z-score (lipoamide; [1]): 0.603
- thermal stability z-score (lipoamide; arsenate co-treatment: none): -0.085
- thermal stability z-score (potassium arsenate): 0.654

Target: TMEM41A (UniProt Q96HV5)
- thermal stability z-score (lipoamide; [1]): 0.652
- thermal stability z-score (lipoamide; arsenate co-treatment: none): 0.936
- thermal stability z-score (potassium arsenate): 0.885

Target: TMEM41B (UniProt Q5BJD5)
- thermal stability z-score (lipoamide; [1]): 0.259
- thermal stability z-score (lipoamide; arsenate co-treatment: none): 0.188
- thermal stability z-score (potassium arsenate): -0.153

Target: TMEM43 (UniProt Q9BTV4)
- thermal stability z-score (lipoamide; [1]): -3.42
- thermal stability z-score (lipoamide; arsenate co-treatment: none): -3.08
- thermal stability z-score (potassium arsenate): 0.701

Reference: the supplement of paper PMC12463676, “Small-molecule dissolution of stress granules by redox modulation benefits ALS models” (Nature Chemical Biology, 2025)
